Source: patent publication US7968516B2, “Treatment of multiple sclerosis and other autoimmune diseases by use of calpin inhibitors” (ProTor Pharma Corporation, priority 2004, dated 2011)
Where a SMILES comes first, the peptide text is derived from it. [ ]: non-standard residue; d: D form. Cya = N[CH](CS(=O)(=O)O)C(=O)O

Columns and labels:
[1] = system: MOG aa35-55 induced EAE in C57BL/6J mice; test: Experiment 1: EAE clinical scores, CLA started at immunization; type: in vivo
Protocol: To induce EAE, 7-8 week-old female C57BL/6J mice (Jackson Laboratories, Bar Harbor, Md.) were used. Animals were housed according to IACUC regulations in an AAALAC certified facility. Each was injected subcutaneously (s.c.) at two sites on the flanks with 300 μg of myelin oligodendrocyte glycoprotein (MOG) peptide 35-55 in Complete Freund's Adjuvant (CFA) twice with a one week interval between injections, as previously reported (14). Pertussis toxin (PT) was given intraperitoneally on days 0 and 2 post-immunization. CLA was administered to 12 MOG/CFA immunized mice, i.p. at an initial dose of one mg/mouse, starting on the day of the second immunization, followed by 0.5 mg/mouse/day until the end of the experiment, which lasted 19 days. […]
Clinical evaluation: Mice were evaluated daily for clinical signs of disease for up to 19 days after inoculation. Clinical severity was assessed on a scale of 0-6 as follows: • […] abnormality • 1 ? mild hind limb weakness (some difficulty righting themselves when turned on their backs), sometimes associated with a weak or floppy tail. • 2 ? moderate hind limb weakness associated with a floppy tail. • 3 ? paralysis of hind limbs, sometimes more marked on one side, but no forelimb weakness. • 4 ? hind leg paralysis accompanied by forelimb weakness. • 5 ? quadriplegia; paralysis of both hind limbs and forelimbs. • 6 ? moribund or death. […]

[2] = system: spinal cord white matter of EAE mice; test: Experiment 2: H&E staining, cellular infiltration of spinal cord white matter; type: in vivo; settings: CLA-treated EAE mice, tissues at end of experiment
Protocol: Hematoxylin and Eosin Staining (H&E): H&E staining was used to show cellular infiltration of spinal cord white matter in mice with acute EAE in comparison with other groups of CFA control and CLA-treated EAE mice, as previously described (14). All staining was performed on tissues that were collected at the end of the experiment. In FIG. 3, 6-10 μm tissue sections were prepared from spinal cords of all mice at the end of the experiment. These tissues were stained with H&E to show inflammatory infiltration (indicated by arrows). A: CFA control; B: MOG/CFA immunized; C: MOG/CFA immunized and CLA-treated. 20× magnification.

[3] = system: spinal cord white matter of EAE mice; test: Experiment 2: Luxol Fast Blue staining, myelin content of spinal cord; type: in vivo; settings: lumbar spinal cord, CLA-treated EAE mice
Protocol: Luxol Fast Blue (LFB) Staining of Spinal Cord Tissues: This staining method, which identifies changes in myelin content of CNS tissues, was performed as previously described (39). Six-10 μm tissue sections were prepared from the lumbar spinal cords of all mice at the end of the experiment. The sections were stained with LFB and counterstained with eosin and cresyl violet to observe changes in the myelin content of the control and treatment groups: A: CFA control; B: MOG/CFA immunized: C; MOG/CFA immunized and CLA-treated. 20× magnification. All myelin containing regions stain blue.

[4] = system: calpain; test: Experiment 2: immunofluorescent staining for calpain, CD11b and CD45 in spinal cord white matter; type: in vivo; settings: untreated versus CLA-treated EAE mice
Protocol: Expression of Calpain in Spinal Cord White Matter: Expression of calpain was determined in spinal cord tissues collected from all experimental and control groups of mice at the end of the experiment. Sections of paraformaldehyde-fixed tissues were stained with antibodies against calpain (FITC conjugated), CD11b (MΦ/microglia marker)(Texas Red-conjugated) and CD45 (leukocyte common antigen) (FITC-conjugated). Referring to FIG. 5, six 10 μm sections were stained with anti-calpain antibody and specific cell marker antibodies (CD45, CD11b). Positive staining for calpain (A, B, C); cells positive for MΦ/microglia marker (CD11b^+) (D, E, F); cells positive for leukocyte common antigen (CD 45^+)(G, H, I). 20× magnification. […] All leukocytes including MΦ, but not microglia, are stained with CD45.

[5] = system: MOG aa35-55 induced EAE in C57BL/6J mice; test: Experiment 3: EAE clinical scores, CLA twice daily after disease process started; type: in vivo
Protocol: (§1) Clinical evaluation: Mice were evaluated daily for clinical signs of disease for up to 19 days after inoculation. Clinical severity was assessed on a scale of 0-6 as follows: • […] abnormality • 1 ? mild hind limb weakness (some difficulty righting themselves when turned on their backs), sometimes associated with a weak or floppy tail. • 2 ? moderate hind limb weakness associated with a floppy tail. • 3 ? paralysis of hind limbs, sometimes more marked on one side, but no forelimb weakness. • 4 ? hind leg paralysis accompanied by forelimb weakness. • 5 ? quadriplegia; paralysis of both hind limbs and forelimbs. • 6 ? moribund or death.
To induce EAE, mice were each inoculated once with MOG aa35-55 in Complete Freund's Adjuvant (CFA) and Pertussis toxin as previously described. Thirty 7 to 8-week-old female C57BL/6J mice (Jackson Laboratories, Bar Harbor, Mass.) were used in this experiment. […] Controls included two groups of 4 mice for CLA only and CFA/PT only and 4 were left as normal controls. CLA was dissolved in PBS and each mouse in the treatment group was injected i.p. with 200 μl of PBS containing 0.5 mg of CLA every 12 hours until the end of the experiment on day 25 pi. Mice were evaluated daily for clinical signs and symptoms of EAE and graded on a 0-6 scale for up to 25 days after inoculation as detailed above. Scores of asymptomatic mice (score=0) were included in the calculation of the daily mean clinical score for each group.

[6] = system: chronic phase of EAE in C57BL/6J mice; test: Experiment 4: chronic phase EAE clinical scores; type: in vivo; settings: 30 days
Protocol: as §1
The chronic phase of EAE occurs after the clinical score of an affected mouse reaches a plateau at the highest level of the acute phase of the disease. In this chronic phase, more extensive damage occurs to nerve axons, beyond the demyelination observed in the acute phase of the disease (22). EAE was induced in 7-8 week-old female C57BL/6J “mice” by subcutaneous (s.c.) injection in each flank with 100 μl of an emulsion containing […] Freund's Adjuvant supplemented with 500 μg heat inactivated mycobacterium tuberculosis (Sigma St. Louis, Mo.) and 300 μg MOG 35-55. 100 ng of Pertussis toxin (PT) was given intraperitoneally on days 0 and 2 post-immunization. […]

[7] = system: spinal cord axons of EAE mice; test: Experiment 4: axonal integrity by LFB staining; type: in vivo; settings: day 30 post-immunization
From the text: Evaluation of axonal integrity using LFB staining: Spinal cord tissue was taken from mice at day 30 post-immunization, approximately 13 days into the chronic phase of EAE. Myelin is stained a blue color by LFB, and the appearance of a normal myelin-coated axon, taken from spinal cord tissue, is shown longitudinally in FIG. 8A.

[8] = system: amyloid precursor protein (APP); test: Experiment 4: accumulation of amyloid precursor protein in axons; type: in vivo, mice; settings: spinal cord, day 30, anti-APP antibody
From the text: Spinal cord tissue taken from mice at day 30 was stained with a fluorescently-labeled anti-APP antibody.

[9] = system: chinchillas exposed to 105 decibel SPL noise; test: Experiment 6: acoustic trauma, compound action potential (CAP) threshold shift; type: in vivo; settings: 7 mg/kg/day i.p. for seven days; about 4 weeks after noise exposure
Protocol: (§2) Twelve chinchillas were divided into treatment and control groups (six animals each). The treatment groups received 7 mg/kg/day CLA i.p., for seven days. The control groups received an identical volume of PBS vehicle. Starting on day 0, all of the animals were exposed to a 105 decibel sound pressure level (SPL) noise with a frequency band centered on 4 kilohertz (kHz). The noise exposure lasted for 48 hours, ending two days after the beginning of the dose. Approximately 4 weeks after the noise exposure and dosing, the animals were anesthetized, tracheotimized, and placed upon a heating pad (37 degrees C.). A silver-ball electrode was attached to the round window of the left and right ears to record the compound action potential (CAP). CAP input functions were recorded at 0.5, 1, 2, 4, 8, 16 kHz tone burst levels generated by a digital-to-analog converter attached to a computer. The CAP threshold shift is the change in sound level required to generate an action potential at the electrode subsequent to noise exposure, and increases in the threshold shift reflect increased hearing loss. […] After the CAP threshold shifts were measured, the animals were decapitated, and the cochleae were removed. The hair cells from 11 cochleae were evaluated histologically. […] The numbers of outer hair cells (#OHC) were counted as a function of the distance from the apex of the cochlea. […]

[10] = system: outer hair cells of the cochlea; test: Experiment 6: acoustic trauma, outer hair cell counts; type: in vivo, chinchillas; settings: 7 mg/kg/day i.p. for seven days; as a function of distance from apex of cochlea
Protocol: as §2

[11] = Experiment 7: plasma and retina concentrations after oral CLA-acetal; type: in vivo, Sprague-Dawley rats; settings: after 10 mg/kg oral CLA-acetal
Protocol: Male Sprague-Dawley rats (n=5 per time point, weight 200-250 g) were administer 10 mg/kg CLA-acetal by oral gavage, formulated as a 0.6% solution in phosphate-buffered saline. At 0.1, 0.25, 0.5, 1, 2, 4, 8, 12 and 24 hours, the rats were anesthetized, blood samples were collected, and the retinas were isolated. The plasma samples (200 μL) were treated with 1 mL methanol and centrifuged to remove protein. The supernatants from centrifugation were evaporated, and the residue was taken up in 0.02% aqueous ammonium heptafluorobutyrate (1 mL). The retina samples were homogenized, treated with methanol, centrifuged, and evaporated, and the residue was taken up in 0.02% aqueous ammonium heptafluorobutyrate (1 mL). The plasma and retinal concentrations of CLA and CLA-acetal were determined by liquid chromatography followed by turbo ion spray mass spectrometry on an MDS-Sciex API 4000 triple-quadropole mass spectrometer equipped with a turbo ion spray source. Elution peaks yielding ions corresponding to CLA or CLA-acetal were integrated and used to determine the amount of compound present, by reference to standards. Data reduction was performed using Sciex Analyst version 1.3 software. The peak concentrations (Cmax) were estimated from the concentrations of CLA measured over time.

[12] = system: EAE in rats; settings: cited from earlier work
[13] = system: cochlear and vestibular hair; settings: cited from earlier work
[14] = cited from earlier work
[15] = CLA 0.5 mg i.p. every 12 hours from day 7 pi
[16] = CLA twice daily started after signs of stage 2 EAE

SMILES: CC(C)CC(NC(=O)C(N)CS(=O)(=O)O)C(=O)NC(C=O)CCCNC(=N)N (stereo not drawn) [CLA, cysteyl-leucyl-argininal] (H-[Cya]-Leu-Arg-aldehyde; configuration not given here)
- average clinical score (ACS) ([1]; MOG/CFA immunized mice, CLA i.p. one mg/mouse then 0.5 mg/mouse/day, scale 0-6, 19 days): 1.86
- effect of CLA only or CFA/CLA on mice ([1]; control mice not immunized with MOG): no effect
- cellular infiltration and perivascular cuffing (H&E) [2]: moderate cellular infiltration and perivascular cuffing
- demyelination (LFB staining) [3]: fewer areas of demyelination
- CD45+ cells (leukocytes) [4]: only marginally higher than CLA-treated EAE mice
- expression of calpain in spinal cord white matter [4]: elevated in untreated EAE mice (FIG. 5B) as compared with CLA-treated EAE mice
- presence of macrophages/microglia (CD11b+ cells) [4]: higher in untreated EAE mice (FIG. 5E) than CLA-treated EAE
- onset of signs of EAE [5, 15]: 15 day pi
- severity of EAE symptoms [5, 15]: did not develop severe paralysis of the limbs
- average clinical score (ACS) on day 17 pi [5, 16]: 1.60
- clinical score on day 25 pi [5, 16]: less than two
- clinical score on day 25 pi ([5]; D7 CLA-treated MOG/CFA mice): less than one
- average clinical score (ACS) on day 17 pi ([5]; D7 CLA-treated MOG/CFA mice, 0.5 mg i.p. every 12 hours): 0.5
- health of CLA only mice ([5]; control mice, CLA only): remained healthy
- maximum clinical score ([6]; CLA 2 mg/mouse/day i.p. from day 7 (prior to onset)): below 0.5
- maximum clinical score ([6]; CLA 2 mg/mouse/day i.p. from day 12 (after onset)): < 1.0
- axonal integrity (LFB staining) [7]: marked improvement in axonal integrity
- accumulation of APP in axons [8]: reduces accumulation of APP
- CAP threshold shift [9]: decreased the CAP threshold shift
- numbers of outer hair cells (#OHC) [10]: increase in the number of outer hair cells at all distances from the apex
- concentrations in retina compared with plasma [11]: much higher in retina than in plasma

SMILES: CC(=O)N[C@@H](CC(C)C)C(=O)N[C@@H](CC(C)C)C(=O)N[C@H](C=O)CCCNC(=N)N [leupeptin]
- suppression of EAE [12]: suppressing EAE
- protection from gentamycin ototoxicity [13]: protects cochlear and vestibular hair from gentamycin oxotoxicity
- cellular permeability [14]: poor cellular permeability
